Source: patent US8008329B2 (Dong Wha Pharmaceutical Co., Ltd., priority 2008, dated 2011)
Marks after values point to notes of the source that are not given here.

Test system: osteoclast differentiation
Assay: Osteoclast differentiation in co-culture of mouse bone marrow cells and ST2 cells, TRAP staining (Examples 8-9)
Format: cell-based
Conditions: for % number of osteoclast (vs. solvent control group): 0.1 μM each, day 7; for activity at 0.1 µM: Mus musculus, Osteoclast, 168 h, Individual treatment (compounds), day 7, read-out: % number of osteoclast (vs. solvent control group)
How it was run: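 Bone marrow cells from 6-8-week male ddY mice were co-cultured with ST2 stromal cells under 10^−8 M vitamin D3 and 10^−8 M dexamethasone, with compounds at 0.1 μM final (0.1% DMSO control), refreshed on days 3 and 5. On day 7, TRAP-positive osteoclasts with ≥6 nuclei were counted and expressed as % of solvent control (n=4).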

[1] = Combination treatment (alendronic acid + compounds)
[2] = Combination treatment (risedronic acid + compounds)

Row | Compound | % number of osteoclast (vs. solvent control group) [1] | % number of osteoclast (vs. solvent control group) [2] | activity at 0.1 µM
1 | CCCNc1nc(-c2ccc(OCCCCCOc3ccc(C(=N)NO)cc3)cc2)c(CC2CCCC2)s1 [Compound 111, N-hydroxy-4-{5-[4-(5-cyclopentylmethyl-2-propylamino-1,3-thiazol-4-yl)phenoxy]pentyloxy}-benzamidine] | 51 ± 6.0% | 32 ± 5.2^ac % | 76 ± 12.2%
2 | Cc1nc(-c2ccc(OCCCCCOc3ccc(C(=N)NO)cc3)cc2)c(CCN2CCCCC2)s1 [Compound 216, N-hydroxy-4-(5-{4-[2-methyl-5-(2-piperidin-1-yl-ethyl)-thiazol-4-yl]-phenoxy}-pentyloxy)-benzamidine] | 72 ± 13.0% | 48 ± 7.8^ac % | 70 ± 5%
3 | CCc1sc(NCCOC)nc1-c1ccc(OCCCCCOc2ccc(C(=N)NO)cc2)cc1 [Compound 102, N-hydroxy-4-{5-[4-(5-ethyl-2-(2-methoxyethyl)amino-1,3-thiazol-4-yl)phenoxy]pentyloxy}-benzamidine] | 37 ± 3.6^b % | 21 ± 2.6^ac % | 47 ± 4%
4 | CCN(Cc1ccccc1)c1nc(-c2ccc(OCCCCCOc3ccc(C(=N)NO)cc3)cc2)c(C)s1 [Compound 127, N-hydroxy-4-[5-{4-[2-(benzyl-ethyl-amino)-5-methyl-1,3-thiazol-4-yl]phenoxy}pentyloxy]-benzamidine] | 37 ± 6.8^ab % | 33 ± 7.3^ac % | 75 ± 14.3%
5 | Cc1nc(-c2ccc(OCCCCCOc3ccc(C(=N)NO)cc3)cc2)c(Cn2ccnc2)s1 [Compound 305, N-hydroxy-4-{5-[4-(5-imidazol-1-ylmethyl-2-methyl-thiazol-4-yl)-phenoxy]-pentyloxy}-benzamidine] | 15 ± 4.8^ab % | 11 ± 4.1^ac % | 58 ± 6.1%
6 | N=C(NO)c1ccc(OCCCCCOc2ccc(-c3nc(N4CCOCC4)sc3CN3CCOCC3)cc2)cc1 [Compound 336, N-hydroxy-4-{5-[4-(2-morpholin-4-yl-5-morpholin-4-ylmethyl-thiazol-4-yl)-phenoxy]-pentyloxy}-benzamidine] | 22 ± 3.2^ab % | 16 ± 3.0^ac % | 52 ± 4%
7 | CCCN1CCC(c2nc(-c3ccc(OCCCCCOc4ccc(C(=N)NO)cc4)cc3)c(C)s2)CC1 [Compound 72, N-hydroxy-4-{5-[4-(5-methyl-2-(1-propyl-piperidin-4-yl)-1,3-thiazol-4-yl)phenoxy]pentyloxy}-benzamidine] | 30 ± 4.0^ab % | 12 ± 3.2^ac % | 63 ± 1.1%
8 | CCc1nc(-c2ccc(OCCCCCOc3ccc(C(=N)NO)cc3)cc2)c(CC2CCCC2)s1 [Compound 46, N-hydroxy-4-{5-[4-(5-cyclopentylmethyl-2-ethyl-1,3-thiazol-4-yl)phenoxy]pentyloxy}-benzamidine] | 36 ± 5.1^ab % | 31 ± 8.5^ac % | 71 ± 9.4%
9 | CCN(CCO)c1nc(-c2ccc(OCCCCCOc3ccc(C(=N)NO)cc3)cc2)c(C)s1 [Compound 121, N-hydroxy-4-[5-(4-{2-[ethyl-(2-hydroxyethyl) -amino]-5-methyl-1,3-thiazol-4-yl}phenoxy)pentyloxy]-benzamidine] | 55 ± 11.1^ab % | 39 ± 5.7^ac % | 95 ± 3.9%
10 | CN(Cc1cccnc1)c1nc(-c2ccc(OCCCCCOc3ccc(C(=N)NO)cc3)cc2)c(CC2CCCC2)s1 [Compound 147, N-hydroxy-4-[5-(4-{5-cyclopentylmethyl-2-[methyl-(pyridin-3-ylmethyl)amino]-1,3-thiazol-4-yl}phenoxy)pentyloxy]-benzamidine] | 31 ± 3.2^ab % | 14 ± 3.0^ac % | 46 ± 4.1%
